Laboratory results reported in ChEMBL document CHEMBL1148819, “Structure, derivatization, and antitumor activity of new griseusins from Nocardiopsis sp” (J Med Chem, 2007).

How the values were obtained:
[1] = Cytotoxicity against CXF264 cells after 2 to 7 days by clonogenic assay; assay type: functional, cell-based; conditions: Homo sapiens
[2] = Cytotoxicity against MEXF520L cells after 4 days by monolayer assay; assay type: functional, cell-based; conditions: Homo sapiens, MEXF 520L, 96 h
[3] = Cytotoxicity against MEXF535 cells after 2 to 7 days by clonogenic assay; assay type: functional, cell-based; conditions: Homo sapiens
[4] = Cytotoxicity against RXF944LX cells after 2 to 7 days by clonogenic assay; assay type: functional, cell-based; conditions: Homo sapiens, RXF 944LX
[5] = Cytotoxicity against BXF1218L cells after 4 days by monolayer assay; assay type: functional, cell-based; conditions: Homo sapiens, BXF 1218L, 96 h
MEXF276L = test: Cytotoxicity against MEXF276L cells after 4 days by monolayer assay; assay type: functional, cell-based; conditions: Homo sapiens, 96 h
PAXF736 = test: Cytotoxicity against PAXF736 cells after 2 to 7 days by clonogenic assay; assay type: functional, cell-based; conditions: Homo sapiens
[6] = Cytotoxicity against PRXF22Rv1 cells after 4 days by monolayer assay; assay type: functional, cell-based; conditions: Homo sapiens, 96 h
[7] = Cytotoxicity against MAXF583 cells after 2 to 7 days by clonogenic assay; assay type: functional, cell-based; conditions: Homo sapiens
[8] = Cytotoxicity against MAXF1162 cells after 2 to 7 days by clonogenic assay; assay type: functional, cell-based; conditions: Homo sapiens
[9] = Cytotoxicity against LXF-1121L cells after 4 days by monolayer assay; assay type: functional, cell-based; conditions: Homo sapiens, 96 h
[10] = Cytotoxicity against MEXF394NL cells after 4 days by monolayer assay; assay type: functional, cell-based; conditions: Homo sapiens, MEXF 394NL, 96 h
MEXF989 = test: Cytotoxicity against MEXF989 cells after 2 to 7 days by clonogenic assay; assay type: functional, cell-based; conditions: Homo sapiens, MEXF 989
[11] = Cytotoxicity against human umbilical cord hematopoietic stem cells after 12 days by clonogenic assay; assay type: cell-based; conditions: 288 h
CCRF-CEM = test: Cytotoxicity against CCRF-CEM cells after 2 to 7 days by clonogenic assay; assay type: functional, cell-based; conditions: Homo sapiens
[12] = Cytotoxicity against MEXF514L cells after 4 days by monolayer assay; assay type: functional, cell-based; conditions: Homo sapiens, MEXF 514L, 96 h
[13] = Cytotoxicity against MEXF462NL cells after 4 days by monolayer assay; assay type: functional, cell-based; conditions: Homo sapiens, MEXF 462NL, 96 h
[14] = Cytotoxicity against CXF158 cells after 2 to 7 days by clonogenic assay; assay type: functional, cell-based; conditions: Homo sapiens
MDA-MB-468 = test: Cytotoxicity against MDA-MB-468 cells after 4 days by monolayer assay; assay type: functional, cell-based; conditions: Homo sapiens, MDA-MB-468, 96 h
RXF 393 [15] = test: Cytotoxicity against RXF393NL cells after 4 days by monolayer assay; assay type: functional, cell-based; conditions: Homo sapiens, RXF 393NL, 96 h
[16] = Cytotoxicity against RXF944L cells after 4 days by monolayer assay; assay type: functional, cell-based; conditions: Homo sapiens, RXF 944L, 96 h
MCF7 = test: Cytotoxicity against MCF7 cells after 4 days by monolayer assay; assay type: functional, cell-based; conditions: Homo sapiens, MCF7, 96 h
[17] = Cytotoxicity against RXF468L cells after 4 days by monolayer assay; assay type: functional, cell-based; conditions: Homo sapiens, 96 h
PAXF546 = test: Cytotoxicity against PAXF546 cells after 2 to 7 days by clonogenic assay; assay type: functional, cell-based; conditions: Homo sapiens
[18] = Cytotoxicity against CXF1103 cells after 2 to 7 days by clonogenic assay; assay type: functional, cell-based; conditions: Homo sapiens
[19] = Cytotoxicity against MAXF401 cells after 4 days by monolayer assay; assay type: functional, cell-based; conditions: Homo sapiens, MAXF401, 96 h
MDA-MB-231 = test: Cytotoxicity against MDA-MB-231 cells after 4 days by monolayer assay; assay type: functional, cell-based; conditions: Homo sapiens, MDA-MB-231, 96 h
RXF 393 [20] = test: Cytotoxicity against RXF393 cells after 2 to 7 days by clonogenic assay; assay type: functional, cell-based; conditions: Homo sapiens

`C[C@@H]1CC(=O)[C@@H](O)[C@]2(O1)O[C@@H]1CC(=O)O[C@@H]1C1=C2C(=O)c2c(O)cccc2C1=O` showed an IC50 [1] of 257 nM, an IC50 [2] of 87 nM and an IC50 [3] of 137 nM. The IC50 [4] was 290 nM, the IC50 [5] was 140 nM and the IC50 (MEXF276L) was 87 nM. The IC50 (PAXF736) was 614 nM, the IC50 [6] was 177 nM and the IC50 [7] was 195 nM. The IC50 [8] was 455 nM, the IC50 [9] was 207 nM and the IC50 [10] was 87 nM. It also gave an IC50 (MEXF989) of 295 nM, an IC50 [11] of 1190 nM and an IC50 (CCRF-CEM) of 132 nM. The IC50 [12] was 87 nM, the IC50 [13] was 87 nM and the IC50 [14] was 257 nM. It also gave an IC50 (MDA-MB-468) of 150 nM, an IC50 (RXF 393 [15]) of 95 nM and an IC50 [16] of 95 nM. The IC50 (MCF7) was 150 nM, the IC50 [17] was 95 nM and the IC50 (PAXF546) was 420 nM. It also gave an IC50 [18] of 257 nM, an IC50 [19] of 150 nM and an IC50 (MDA-MB-231) of 150 nM. For the same compound, the IC50 (RXF 393 [20]) was 375 nM.
